Like-named read-outs stand apart in the source and are kept apart here.
Assays:
FXIa = details: representative FXIa inhibitors, Figure 1; cited from earlier work
rabbit plasma = assay: aPTT in vitro coagulation assay; assay type: biochemical; details: incubated 3 min at 37 °C
Experimental: A commercially available automatic Coagulation analyzer (Steellex Science Instrument Co., Ltd., Beijing, China) was employed to measure aPTT. The clotting times were also measured using the instrument itself, in accordance with the manufacturer’s instructions. Increasing concentrations of inhibitor or solvent were added to rabbit (Beijing Longan Experimental Animal Breeding Center, SCXK(Jing)2016-0006, Beijing, China) plasma and incubated for 3 min at 37 °C. APTT was determined by automatic Coagulation analyzer.

human FXIa = biological target: T1, human FXIa (Homo sapiens, UniProt P03951); assay: Inhibition of FXIa in vitro (chromogenic substrate assay); assay type: biochemical
T1 construct: purchased Haematologic Technologies, Essex Junction, VT, USA
Experimental: The negative controlwas composed of the same mixed solutions except replacing test compound with DMSO. […] The IC50 was calculated by IBM SPSS Statistics 22.0 (IBM Inc., North Castle, NY, USA) and the Probit function in it. IC50 values were converted to Ki values by the followingrelationship:Ki = IC50/(1 + [S]/Km)

[1] = human FXIa, chromogenic substrate BIOPHEN CS-21(66), 37 °C, pH 7.4, Ki = IC50/(1 + [S]/Km), read-out: Ki

T1 sequence (P03951 388-625 limits assumed): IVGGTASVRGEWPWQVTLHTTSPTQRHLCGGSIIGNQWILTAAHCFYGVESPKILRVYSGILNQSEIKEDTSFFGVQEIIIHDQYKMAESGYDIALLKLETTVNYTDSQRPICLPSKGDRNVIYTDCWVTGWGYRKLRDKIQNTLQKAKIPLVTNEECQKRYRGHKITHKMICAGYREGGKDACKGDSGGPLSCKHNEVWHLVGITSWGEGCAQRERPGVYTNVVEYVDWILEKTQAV
T1 sequence (P03951 19-387 partner limits assumed): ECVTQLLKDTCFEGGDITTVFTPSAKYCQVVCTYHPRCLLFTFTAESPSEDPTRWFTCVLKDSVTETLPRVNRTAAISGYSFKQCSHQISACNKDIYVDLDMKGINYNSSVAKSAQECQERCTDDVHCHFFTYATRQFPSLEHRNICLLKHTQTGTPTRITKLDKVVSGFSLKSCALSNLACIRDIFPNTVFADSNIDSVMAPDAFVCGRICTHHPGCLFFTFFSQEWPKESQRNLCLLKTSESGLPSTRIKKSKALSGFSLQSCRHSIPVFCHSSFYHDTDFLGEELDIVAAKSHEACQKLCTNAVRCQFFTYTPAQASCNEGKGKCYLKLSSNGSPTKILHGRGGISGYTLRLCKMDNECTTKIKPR

Row | Ki (human FXIa; Table 1 values, read-out: FXIa inhibitory potency (Ki)) | Ki (human FXIa; [1]) | melting point | SMILES | Ki (FXIa) | 1.5× aPTT (μM) (Rabbit) (rabbit plasma)
1 |  |  |  | COC1CCN(c2cccc3c2CCN(C(=O)c2cc(-c4cccc(Cl)c4)[nH]n2)[C@@H]3C(=O)Nc2ccc(C(=O)O)cc2)CC1 [Compound 2] | 18.4 nM | 
2 | 23.5 nM | 23.5 nM |  | NC[C@H]1CC[C@H](C(=O)NC(Cc2ccccc2)c2ncc(-c3ccc4c(N)n[nH]c4c3)[nH]2)CC1 (stereo partly shown) [Compound 4, reference compound] |  | 3.79 µM
3 |  |  |  | CC1CC1C(=O)Nc1ccc(C[C@H](NC(=O)c2cc(-c3cccc(Cl)c3F)[nH]n2)C(=O)Nc2ccc3[nH]c(C(=O)O)cc3c2)cc1 (stereo partly drawn) [Compound 7za, 5-((2S)-2-(5-(3-Chloro-2-fluorophenyl)-1H-pyrazole-3-carboxamido)-3-(4-(2-methylcyclopropane-carboxamido)phenyl)propanamido)-1H-indole-2-carboxylic acid] |  | 43.33 µM
4 |  | 4820 nM | 200 to 202 °C (dec.) | O=C(N[C@@H](Cc1ccc(N2CCOCC2=O)cc1)C(=O)Nc1ccc2[nH]c(C(=O)O)cc2c1)c1cc(-c2cccc(Cl)c2F)[nH]n1 [Compound 7zc, (S)-5-(2-(5-(3-Chloro-2-fluorophenyl)-1H-pyrazole-3-carboxamido)-3-(4-(3-oxomorpholino)phenyl)-propanamido)-1H-indole-2-carboxylic acid] |  | 

— publication PMC6222544, “Fragment-Based Lead Generation of 5-Phenyl-1H-pyrazole-3-carboxamide Derivatives as Leads for Potent Factor Xia Inhibitors” (Molecules : A Journal of Synthetic Chemistry and Natural …, 2018)
